Converted amounts (≈) assume the structure as drawn. Like-named read-outs stand apart in the source and are kept apart here.
What was measured:
[1] = system: Escherichia coli CMCC 44568; assay: Antibacterial MIC, serial dilution; assay type: cell-based
Method: (§1) Test bacteria were grown to mid-log phase in Mueller–Hinton broth (MHB) or Tryptone Soya Broth (TSB) and diluted 1000-fold in the same medium. Bacteria (10^5 CFU/mL) were inoculated into MHB or TSB and dispensed at 0.2 ml/well into a 96-well microtiter plate. As positive controls, gatifloxacin, moxifloxacin, norfloxacin, oxacillin, and penicillin were used. […] Bacterial growth was determined by measuring the absorption at 630 nm using a microplate reader. All experiments were carried out three times.
(§2) The evaluation of antibacterial activity of all compounds (3a–3j and 6a–6k) was performed by a serial dilution method to determine the MIC against a panel of pathogens comprising five Gram-positive strains (S. aureus (CMCC(B) 26003 and CMCC 25923), Streptococcus mutans BNCC 336931, Enterococcus faecalis CMCC 29212, and Bacillus subtilis CMCC 63501), four Gram-negative strains (E. coli (CMCC 25922 and CMCC 44568) and P. aeruginosa (CMCC 27853 and CMCC 10104)), as well as three methicillin-resistant clinical isolates (S. aureus ATCC 43300 and ATCC 33591, P. aeruginosa ATCC BAA-2111). The results are described in Tables 1 and 2. Gatifloxacin, moxifloxacin, norfloxacin, oxacillin, and penicillin were used as positive controls.

[2] = system: Escherichia coli CMCC 25922; assay: Antibacterial MIC, serial dilution; assay type: cell-based
Method: as §1, §2

[3] = system: Pseudomonas aeruginosa CMCC 10104; assay: Antibacterial MIC, serial dilution; assay type: cell-based; settings: P. aeruginosa CMCC 10104, 24 h, 37 °C
Method: as §1, §2

[4] = system: Streptococcus mutans BNCC 336931; assay: Antibacterial MIC, serial dilution; assay type: cell-based; settings: S. mutans BNCC 336931, 24 h, 37 °C
Method: as §1, §2

[5] = system: Bacillus subtilis CMCC 63501; assay: Antibacterial MIC, serial dilution; assay type: cell-based
Method: as §1, §2

[6] = system: Staphylococcus aureus CMCC(B)26003; assay: Antibacterial MIC, serial dilution; assay type: cell-based
Method: as §1, §2

[7] = system: Enterococcus faecalis CMCC 29212; assay: Antibacterial MIC, serial dilution; assay type: cell-based; settings: E. faecalis CMCC 29212, 24 h, 37 °C
Method: as §1, §2

[8] = system: Pseudomonas aeruginosa CMCC 27853; assay: Antibacterial MIC, serial dilution; assay type: cell-based
Method: as §1, §2

[9] = system: Staphyiococcus aureus CMCC 25923; assay: Antibacterial MIC, serial dilution; assay type: cell-based, Staphylococcus aureus
Method: as §1, §2

[10] = system: Staphylococcus aureus ATCC 43300; assay: Antibacterial MIC, multidrug-resistant clinical isolate; assay type: cell-based; settings: multidrug-resistant S. aureus ATCC 43300
Method: as §1, §2

[11] = system: Staphylococcus aureus ATCC 33591; assay: as above; assay type: cell-based; settings: multidrug-resistant S. aureus ATCC 33591
Method: as §1, §2

[12] = Escherichia coli, CMCC44568, E. coli CMCC 44568, 24 h, 37 °C, read-out: MIC
[13] = Escherichia coli, CMCC25922, E. coli CMCC 25922, 24 h, 37 °C, read-out: MIC
[14] = Pseudomonas aeruginosa, CMCC10104, read-out: MIC
[15] = Streptococcus mutans, BNCC336931, read-out: MIC
[16] = Bacillus subtilis, CMCC63501, B. subtilis CMCC 63501, 24 h, 37 °C, read-out: MIC
[17] = Staphylococcus aureus, S. aureus CMCC(B)26003, 24 h, 37 °C, read-out: MIC
[18] = Enterococcus faecalis, CMCC29212, read-out: MIC
[19] = Pseudomonas aeruginosa, CMCC27853, P. aeruginosa CMCC 27853, 24 h, 37 °C, read-out: MIC
[20] = Staphylococcus aureus, CMCC25923, S. aureus CMCC 25923, 24 h, 37 °C, read-out: MIC
[21] = Staphylococcus aureus, ATCC43300, read-out: MIC
[22] = Staphylococcus aureus, ATCC33591, read-out: MIC
[23] = Escherichia coli, CMCC44568, 24 h

Compound	melting point [°C]	MIC [1, 12] [µg/mL]	MIC [2, 13] [µg/mL]	MIC [3, 14] [µg/mL]	MIC [4, 15] [µg/mL]	MIC [5, 16] [µg/mL]	MIC [6, 17] [µg/mL]	MIC [7, 18] [µg/mL]	MIC [8, 19] [µg/mL]	MIC [9, 20] [µg/mL]	MIC [10, 21] [µg/mL]	MIC [11, 22] [µg/mL]	other results
N=C(N)NN=Cc1ccc(C#Cc2ccccc2)cc1 [Compound 3a, 2-(4-(Phenylethynyl)benzylidene)hydrazine-1-carboximidamide]	225 to 226	4 (≈ 15.2 µM)	4 (≈ 15.2 µM)	4 (≈ 15.2 µM)	4 (≈ 15.2 µM)	2 (≈ 7.62 µM)	1 (≈ 3.81 µM)	1 (≈ 3.81 µM)	16 (≈ 61 µM)	4 (≈ 15.2 µM)	–	–	–
N=C(N)NN=Cc1ccc(C#Cc2ccccc2F)cc1 [Compound 3b, 2-(4-((2-Fluorophenyl)ethynyl)benzylidene)hydrazine-1-carboximidamide]	189 to 190	8 (≈ 28.5 µM)	4 (≈ 14.3 µM)	8 (≈ 28.5 µM)	4 (≈ 14.3 µM)	2 (≈ 7.14 µM)	1 (≈ 3.57 µM)	1 (≈ 3.57 µM)	128 (≈ 457 µM)	8 (≈ 28.5 µM)	–	–	–
N=C(N)NN=Cc1ccc(C#Cc2cccc(F)c2)cc1 [Compound 3c, 2-(4-((3-Fluorophenyl)ethynyl)benzylidene)hydrazine-1-carboximidamide]	223 to 224	4 (≈ 14.3 µM)	2 (≈ 7.14 µM)	2 (≈ 7.14 µM)	2 (≈ 7.14 µM)	1 (≈ 3.57 µM)	1 (≈ 3.57 µM)	1 (≈ 3.57 µM)	16 (≈ 57.1 µM)	4 (≈ 14.3 µM)	2 (≈ 7.14 µM)	1 (≈ 3.57 µM)	–
N=C(N)NN=Cc1ccc(C#Cc2ccc(F)cc2)cc1 [Compound 3d, 2-(4-((4-Fluorophenyl)ethynyl)benzylidene)hydrazine-1-carboximidamide]	238 to 239	8 (≈ 28.5 µM)	2 (≈ 7.14 µM)	2 (≈ 7.14 µM)	4 (≈ 14.3 µM)	1 (≈ 3.57 µM)	1 (≈ 3.57 µM)	1 (≈ 3.57 µM)	8 (≈ 28.5 µM)	2 (≈ 7.14 µM)	4 (≈ 14.3 µM)	1 (≈ 3.57 µM)	–
N=C(N)NN=Cc1ccc(C#Cc2ccccc2Br)cc1 [Compound 3h, 2-(4-((2-Bromophenyl)ethynyl)benzylidene)hydrazine-1-carboximidamide]	188 to 190	4 (≈ 11.7 µM)	4 (≈ 11.7 µM)	8 (≈ 23.4 µM)	2 (≈ 5.86 µM)	2 (≈ 5.86 µM)	2 (≈ 5.86 µM)	1 (≈ 2.93 µM)	> 128	1 (≈ 2.93 µM)	–	–	–
N=C(N)NN=Cc1ccc(C#CC#Cc2cccc(F)c2)cc1 [Compound 6c, 2-(4-((3-Fluorophenyl)buta-1,3-diyn-1-yl)benzylidene)hydrazine-1-carboximidamide]	186 to 190	> 128	2 (≈ 6.57 µM)	4 (≈ 13.1 µM)	0.5 (≈ 1.64 µM)	2 (≈ 6.57 µM)	128 (≈ 421 µM)	0.5 (≈ 1.64 µM)	> 128	128 (≈ 421 µM)	–	–	–
N=C(N)NN=Cc1ccc(C#CC#Cc2cccc(Cl)c2)cc1 [Compound 6f, 2-(4-((3-Chlorophenyl)buta-1,3-diyn-1-yl)benzylidene)hydrazine-1-carboximidamide]	198 to 201	32 (≈ 99.8 µM)	4 (≈ 12.5 µM)	16 (≈ 49.9 µM)	0.5 (≈ 1.56 µM)	4 (≈ 12.5 µM)	1 (≈ 3.12 µM)	0.5 (≈ 1.56 µM)	> 128	8 (≈ 24.9 µM)	–	–	–
N=C(N)NN=Cc1ccc(C#CC#Cc2ccccc2Br)cc1 [Compound 6h, 2-(4-((2-Bromophenyl)buta-1,3-diyn-1-yl)benzylidene)hydrazine-1-carboximidamide]	217 to 219	128 (≈ 350 µM)	8 (≈ 21.9 µM)	8 (≈ 21.9 µM)	1 (≈ 2.74 µM)	2 (≈ 5.48 µM)	1 (≈ 2.74 µM)	0.5 (≈ 1.37 µM)	> 128	32 (≈ 87.6 µM)	–	–	–
N=C(N)NN=Cc1ccc(C#CC#Cc2ccc(Br)cc2)cc1 [Compound 6j, 2-(4-((4-Bromophenyl)buta-1,3-diyn-1-yl)benzylidene)hydrazine-1-carboximidamide]	227 to 230	> 128	> 128	> 128	> 128	> 128	128 (≈ 350 µM)	128 (≈ 350 µM)	> 128	> 128	–	–	–
COc1c(N2C[C@@H]3CCCN[C@@H]3C2)c(F)cc2c(=O)c(C(=O)O)cn(C3CC3)c12 [Moxifloxacin, reference compound]	–	–	–	4 (≈ 9.96 µM)	0.5 (≈ 1.25 µM)	–	–	–	–	–	0.5 (≈ 1.25 µM)	0.25 (≈ 0.623 µM)	MIC [1, 23]: 0.125 µg/mL (≈ 0.311 µM); MIC ([2]; Escherichia coli, CMCC25922, 24 h): 0.125 µg/mL (≈ 0.311 µM); MIC ([6]; Staphylococcus aureus, 24 h): 0.125 µg/mL (≈ 0.311 µM); MIC ([9]; Staphylococcus aureus, CMCC25923, 24 h): 0.125 µg/mL (≈ 0.311 µM)
Cc1onc(-c2ccccc2)c1C(=O)N[C@@H]1C(=O)N2[C@@H]1SC(C)(C)[C@@H]2C(=O)O [Oxacillin, reference compound]	–	–	128 (≈ 319 µM)	128 (≈ 319 µM)	0.125 (≈ 0.311 µM)	–	0.125 (≈ 0.311 µM)	128 (≈ 319 µM)	–	0.125 (≈ 0.311 µM)	64 (≈ 159 µM)	8 (≈ 19.9 µM)	MIC [1, 23]: > 128 µg/mL; MIC ([5]; Bacillus subtilis, CMCC63501, 24 h): > 128 µg/mL; MIC ([8]; Pseudomonas aeruginosa, CMCC27853, 24 h): > 128 µg/mL
Penicillin [reference compound]	–	–	–	–	–	–	–	–	–	–	–	–	MIC ([1]; E. coli CMCC 44568, 24 h, 37 °C): >128 µg/mL; MIC ([2]; E. coli CMCC 25922, 24 h, 37 °C): 128 µg/mL; MIC [3]: 32 µg/mL; MIC [4]: 0.125 µg/mL; MIC ([5]; B. subtilis CMCC 63501, 24 h, 37 °C): 128 µg/mL; MIC ([6]; S. aureus CMCC(B)26003, 24 h, 37 °C): 0.125 µg/mL; MIC [7]: 128 µg/mL; MIC ([8]; P. aeruginosa CMCC 27853, 24 h, 37 °C): >128 µg/mL; MIC ([9]; S. aureus CMCC 25923, 24 h, 37 °C): 0.125 µg/mL; MIC [10]: 32 µg/mL; MIC [11]: >32 µg/mL; MIC ([11]; listed as penicillin): > 32 µg/mL
